What was measured:
[1] = test system: relapsed, recurrent, and/or metastatic cervical cancer; experiment: Phase I/II trial of tisotumab vedotin (NCT02001623); assay type: in vivo, human
Excerpt: Further investigation of tisotumab vedotin as a monotherapy and in combination with immunotherapy (e.g., an anti-PD-1 antibody) in a larger cohort of patients with cervical cancer is needed.
Three adverse events of special interest were identified during treatment with tisotumab vedotin alone in the Phase IIa trial discussed above: 1) ocular adverse events; 2) adverse events of peripheral neuropathy; and 3) adverse events of bleeding. […] In the present trial, in order to prevent ocular AEs, all subjects in both treatment groups (i.e., tisotumab vedotin alone or in combination with pembrolizumab) must adhere to the following ocular pre-medication guidelines: 1) use of preservative-free lubricating eye drops during the whole treatment phase of the trial (i.e., from first dose of tisotumab vedotin until the safety follow-up visit). Lubricating eye drops should be administered according to the product prescribing information; 2) it is recommended not to wear contact lenses while treated with tisotumab vedotin from the first dose until a safety follow-up visit; 3) use of refrigerator-based eye cooling pads during infusion, e.g. THERA PEARL Eye Mask or similar, to be applied immediately before infusion in accordance with the instructions provided with the eye cooling pads; 4) administration of local ocular vasoconstrictor before infusion (brimonidine tartrate 0.2% eye drops or similar, 3 drops in each eye immediately prior to start of infusion; otherwise to be used in accordance with the product prescribing information). […] Steroid eye drops should be administered as 1 drop in each eye, 3 times daily, for 3 days, or used in accordance with the product prescribing information.
For AEs of peripheral neuropathy (including neuropathy peripheral; peripheral sensory neuropathy; peripheral motor neuropathy; polyneuropathy): Peripheral neuropathy is a well-known adverse reaction to treatment with platinum and taxane based chemotherapies as well as MMAE-based ADCs and is reported in approximately 35% of subjects who received treatment with tisotumab vedotin. […] A mitigation plan, including dose reduction (See Table 4) and dose delays, is in place to control the rates and severity of peripheral neuropathy observed in subjects treated with tisotumab vedotin. For Grade 2 and 3, or initial or worsening of pre-existing condition, hold tisotumab vedotin until event has improved to ≤grade 1 then reduce next dose according to dose reduction shown in Table 4. No action is required to be taken with pembrolizumab. For ≥Grade 4, permanently discontinue tisotumab vedotin. Contact sponsor to discuss continuation of pembrolizumab alone.
For AEs of bleeding: Bleeding events are considered of special interest due to the mode of action of tisotumab vedotin. […] Dose modification and toxicity management guidelines are in place (Table 7).

T cells = experiment: T cell activation in CSFE labeled PBMCs fed killed MDA-MB-231 cells, with or without pembrolizumab; assay type: cell-based, human; settings: 48 hours, without pembrolizumab
Description: FIG. 8A-8C is a series of graphs in which Tissue Factor positive MDA-MB-231 cells killed with various agents were fed to CSFE labeled human peripheral blood mononuclear cells (PBMCs) in the presence or absence of the PD1 targeting antibody pembrolizumab for 48 hours and T cells activation assessed by A) decreased CSFE fluorescent indicative of T cell proliferation and B) and C) cytokine production.
Induction of the innate immune response following exposure to cancer cells undergoing ICD sets up secondary T cell activation, which can be enhanced by concomitant pembrolizumab treatment.

[2] = test system: HPAFII (pancreatic carcinoma); experiment: Western blot analysis of ER stress induction in HPAFII cells; assay type: cell-based; settings: 18 hours (legend: 16 hours)
Description: Induction of cell death and release of ICD danger signals occurs concomitant with initiation of an ER stress response. Two Tissue Factor positive cell lines, HPAFII (pancreatic carcinoma) and MDA-MB-231 (breast cell carcinoma) were exposed to tisotumab vedotin ADC, an Isotype-MMAE ADC (H00-MMAE, IgG1 MMAE), or free MMAE for 18 hours and induction of ER stress monitored by western blot analysis. Phosphorylation of inositol-requiring transmembrane kinase/endonuclease 1 (IRE1) was detected after treatment with tisotumab vedotin ADC or MMAE free drug (FIG. 6). […] The ability for auristatins to prime the immune system to recognize tumor antigens opens the door for a myriad of combinatorial therapeutic options.

[3] = test system: CD14+ monocyte/macrophages; experiment: Monocyte/macrophage activation in PBMCs fed killed MDA-MB-231 cells; assay type: cell-based, human
Excerpt: FIGS. 7A and 7B is a series of graphs in which Tissue Factor positive MDA-MB-231 cells killed with various agents were fed to human peripheral blood mononuclear cells (PBMCs) and immune activation assessed by increased expression of activations markers on innate CD14+ monocyte/macrophages and induction of chemokine and cytokine production.
Immunogenic cell death, as mediated by MMAE, is regulated cell death that activates adaptive immune responses against antigens from dead and dying tumor cells, and allows for the generation of robust innate immune cell activation and subsequent cytotoxic T cell responses targeted towards specific tumor cell antigens. […] Furthermore, these monocyte/macrophages conditioned by ICD-killed cells promote activation of T cells, as evidenced by production of signature inflammatory cytokines associated with cytotoxic T cell responses.

[4] = test system: murine tumor cells that stably express human TF; experiment: Syngeneic tumor model: immunization with drug-killed human TF positive murine tumor cells, then tumor challenge; assay type: in vivo, Balb/c mice; settings: mice immunized with tumor cells killed by 1-5 μg per ml tisotumab vedotin or 100 nM MMAE
Description: Mouse tumor cells are transfected with plasmid constructs encoding human tissue factor (TF) and sgRNA-guided Cas9 nuclease (sgRNA/Cas9) to generate a murine cell line that expresses the human TF. Fluorescence activated cell sorting (FACS) yields a clonal population of murine tumor cells that stably express human TF, these cells are then treated with 1 μg to 5 μg per ml of tisotumab vedotin or 100 nM of MMAE for 4 days. In order to prepare dying cells for immunization, treated murine tumor cells are overlaid atop Histopaque, and centrifuged at 2000 g for 30 minutes. Dead and dying cells are pelleted underneath the Histopaque layer, and viability assessed by trypan blue exclusion. A sample with approximately <20% live cells as measured by trypan blue exclusion is obtained. Flash-frozen tumor cells are prepared by submerging the cells in liquid nitrogen for 10 seconds, followed by immersion in 37° C. water until completely thawed. The liquid nitrogen freeze-thaw process is repeated 5 times. Dead and dying human TF positive tumor cells are resuspended in phosphate buffered saline (PBS) and 2×10^6 cells are injected into the peritoneum of immune-competent Balb/c mice. Seven days later, mice receive a second immunization with dead and dying cells prepared in the same manner.
Fourteen days after initial immunization with the dead and dying human TF positive tumor cells, mice are subcutaneously implanted with 5×10^6 wild-type tumor cells and monitored for tumor growth. […] As these effects occur in the absence of any administered therapeutic agent, the administration of cells killed by tisotumab vedotin or MMAE is sufficient to generate long-lasting protective immune memory against subsequent tumor cell challenge. Protective immune memory is amplified by treating these mice with tisotumab vedotin in combination with an antibody that binds to murine PD-1.

[5] = subjects who received tisotumab vedotin
[6] = compared to IgG1-MMAE ADC or tisotumab alone

Substance: tisotumab vedotin: antibody-drug conjugate comprising an antibody that binds to tissue factor (TF), a protease-cleavable linker, and the microtubule disrupting agent MMAE
- efficacy ([1]; 2.0 mg/kg tisotumab vedotin): robust efficacy
- safety profile ([1]; 2.0 mg/kg tisotumab vedotin): manageable safety profile
- bleeding events: epistaxis, frequency ([1]; in vivo): most common reported AE
- bleeding events: epistaxis, grade ([1]; in vivo): nearly all of the cases are grade 1
- clinically relevant perturbations in aPTT or prothrombin time (PT) ([1]; in vivo): have not been observed
- peripheral neuropathy as cause of permanent discontinuation [1, 5]: leading cause of permanently discontinuation
- peripheral neuropathy, grade of reported cases [1, 5]: majority of the reported cases are grade 1-2
- peripheral neuropathy, share of subjects [1, 5]: approximately 35%
- ocular AEs: grade 1-2 conjunctivitis ([1]; tisotumab vedotin alone): frequently reported
- T cell proliferation (CSFE dilution) (T cells): drove T cell proliferation
- production of IFNγ (T cells): production of T cell specific cytokines such as IL12P70 and IFNγ
- production of IL12p70 (T cells): production of T cell specific cytokines such as IL12P70 and IFNγ
- ATF4 cleavage (PERK pathway) [2]: upregulation of ATF4 cleavage
- phosphorylation of IRE1 [2]: detected
- phosphorylation of JNK [2]: increased phosphorylation
- chemotactic and inflammatory mediators from monocyte/macrophages after uptake of dead cells [3]: elicit strong chemotactic and inflammatory mediators
- monocyte/macrophage activation, CD86 expression by flow cytometry [3, 6]: drove monocyte/macrophage activations
- release of innate chemokines including MIP 1β [3, 6]: induced release of innate chemokines including MIP 1β
- survival after challenge with wild-type tumor cells [4]: increased survival
- tumor growth after challenge with wild-type tumor cells [4]: delayed tumor growth

Reference: patent US12324841B2, “Methods of treating cancer with a combination of an anti-PD-1 antibody and an anti-tissue factor antibody-drug conjugate” (GENMAB A/S, priority 2018, dated 2025)
